Experiments:
Test in all cases: Test E postemergence
arrowleaf sida = format: in vivo, Sida rhombifolia
Method in brief: (§1)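 Test chemicals formulated in a non-phytotoxic solvent mixture containing a surfactant were applied preemergence to seeds in silt loam soil or postemergence to plants at the 1- to 4-leaf stage in potting mix. After 14 to 21 days in a greenhouse, injury was visually rated against controls on a 0-100 scale (0 = no effect, 100 = complete control).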

Brazilian crabgrass = format: in vivo, Digitaria horizontalis
Method in brief: as §1

soybean = format: in vivo, Glycine max
Description: (§2) Seeds of plant species selected from corn (Zea mays), soybean (Glycine max), velvetleaf (Abutilon theophrasti), lambsquarters (Chenopodium album), wild poinsettia (Euphorbia heterophylla), palmer pigweed (Amaranthus palmeri), waterhemp (common waterhemp, Amaranthus rudis), surinam grass (Brachiaria decumbens), large (Lg) crabgrass (Digitaria sanguinalis), Brazilian crabgrass (Digitaria horizontalis), fall panicum (Panicum dichotomiflorum), giant foxtail (Setaria faberii), green foxtail (Setaria viridis), goosegrass (Eleusine indica), johnsongrass (Sorghum halepense), ragweed (common ragweed, Ambrosia elatior), barnyardgrass (Echinochloa crus-galli), sandbur (southern sandbur, Cenchrus echinatus), arrowleaf sida (Sida rhombifolia), Italian ryegrass (Lolium multiflorum), dayflower (Virginia (VA) dayflower, Commelina virginica), field bindweed (Convolvulus arvensis), morningglory (Ipomoea coccinea), nightshade (eastern black nightshade, Solanum ptycanthum), kochia (Kochia scoparia), yellow nutsedge (Cyperus esculentus), cocklebur (common cocklebur, Xanthium strumarium), smartweed (ladysthumb smartweed, and hairy beggarticks (Bidens pilosa), were planted into a silt loam soil and treated preemergence with test chemicals formulated in a non-phytotoxic solvent mixture which included a surfactant.
(§3) At the same time, plants from these crop and weed species and also horseweed (Canada horseweed, Conyza canadensis), waterhemp_RES1, (ALS & Triazine resistant common waterhemp, Amaranthus rudis), and waterhemp_RES2, (ALS & HPPD resistant common waterhemp, Amaranthus rudis) were planted in pots containing Redi-Earth® planting medium (Scotts Company, 14111 Scottslawn Road, Marysville, Ohio 43041) comprising spaghnum peat moss, vermiculite, wetting agent and starter nutrients were treated with postemergence applications of test chemicals formulated in the same manner. Plants ranged in height from 2 to 18 cm for postemergence treatments (1- to 4-leaf stage). Treated plants and controls were maintained in a greenhouse for 14 to 21 days, after which time all species were compared to controls and visually evaluated. Plant response ratings, summarized in Table E, are based on a scale of 0 to 100 where 0 is no effect and 100 is complete control. A dash (-) response means no test result.

barnyardgrass = format: in vivo, Echinochloa crus-galli
Method in brief: as §1

corn = format: in vivo, Zea mays
Description: as §2, §3

sandbur = format: in vivo, Cenchrus echinatus
Method in brief: as §1

[1] = Sida rhombifolia, post-emergence, Postemergence, 31 g ai/ha, scale 0 to 100, read-out: Plant response rating, Arrowleaf Sida
[2] = Sida rhombifolia, post-emergence, Postemergence, 62 g ai/ha, scale 0 to 100, read-out: Plant response rating, Arrowleaf Sida
[3] = Sida rhombifolia, post-emergence, Postemergence, 125 g ai/ha, scale 0 to 100, read-out: Plant response rating, Arrowleaf Sida
[4] = Sida rhombifolia, post-emergence, postemergence, 16 g ai/ha, scale 0 to 100, 0 no effect, 100 complete control, read-out: Plant response rating, Arrowleaf Sida
[5] = Digitaria horizontalis, post-emergence, Postemergence, 31 g ai/ha, scale 0 to 100, read-out: Plant response rating, Crabgrass, Brazil
[6] = Digitaria horizontalis, post-emergence, Postemergence, 62 g ai/ha, scale 0 to 100, read-out: Plant response rating, Crabgrass, Brazil
[7] = Digitaria horizontalis, post-emergence, Postemergence, 125 g ai/ha, scale 0 to 100, read-out: Plant response rating, Crabgrass, Brazil
[8] = Digitaria horizontalis, post-emergence, postemergence, 16 g ai/ha, scale 0 to 100, 0 no effect, 100 complete control, read-out: Plant response rating, Crabgrass, Brazil
[9] = Glycine max, post-emergence, Postemergence, 31 g ai/ha, scale 0 to 100
[10] = Glycine max, post-emergence, Postemergence, 62 g ai/ha, scale 0 to 100
[11] = Glycine max, post-emergence, Postemergence, 125 g ai/ha, scale 0 to 100
[12] = Glycine max, post-emergence, postemergence, 16 g ai/ha, scale 0 to 100, 0 no effect, 100 complete control
[13] = Echinochloa crus-galli, post-emergence, Postemergence, 31 g ai/ha, scale 0 to 100, read-out: Plant response rating, Barnyardgrass
[14] = Echinochloa crus-galli, post-emergence, Postemergence, 62 g ai/ha, scale 0 to 100, read-out: Plant response rating, Barnyardgrass
[15] = Echinochloa crus-galli, post-emergence, Postemergence, 125 g ai/ha, scale 0 to 100, read-out: Plant response rating, Barnyardgrass
[16] = Echinochloa crus-galli, post-emergence, postemergence, 16 g ai/ha, scale 0 to 100, 0 no effect, 100 complete control, read-out: Plant response rating, Barnyardgrass
[17] = Zea mays, post-emergence, Postemergence, 31 g ai/ha, scale 0 to 100
[18] = Zea mays, post-emergence, Postemergence, 62 g ai/ha, scale 0 to 100
[19] = Zea mays, post-emergence, Postemergence, 125 g ai/ha, scale 0 to 100
[20] = Zea mays, post-emergence, postemergence, 16 g ai/ha, scale 0 to 100, 0 no effect, 100 complete control
[21] = Cenchrus echinatus, post-emergence, Postemergence, 31 g ai/ha, scale 0 to 100, read-out: Plant response rating, Sandbur
[22] = Cenchrus echinatus, post-emergence, Postemergence, 62 g ai/ha, scale 0 to 100, read-out: Plant response rating, Sandbur
[23] = Cenchrus echinatus, post-emergence, Postemergence, 125 g ai/ha, scale 0 to 100, read-out: Plant response rating, Sandbur
[24] = Cenchrus echinatus, post-emergence, postemergence, 16 g ai/ha, scale 0 to 100, 0 no effect, 100 complete control, read-out: Plant response rating, Sandbur
[25] = Postemergence, 31 g ai/ha, scale 0 to 100
[26] = Postemergence, 62 g ai/ha, scale 0 to 100
[27] = Postemergence, 125 g ai/ha, scale 0 to 100
[28] = postemergence, 8 g ai/ha, scale 0 to 100, 0 no effect, 100 complete control
[29] = postemergence, 16 g ai/ha, scale 0 to 100, 0 no effect, 100 complete control

SMILES: N#Cc1cccc(Oc2ncc(Cl)cn2)c1-n1cc(OCC(F)(F)F)cn1 [Compound 274, 3-[(5-chloro-2-pyrimidinyl)oxy]-2-[4-(2,2,2-trifluoroethoxy)-1H-pyrazol-1-yl]benzonitrile]
- pest or weed control at 31 g/ha (arrowleaf sida; [1]): 60%
- pest or weed control at 62 g/ha (arrowleaf sida; [2]): 75%
- pest or weed control at 125 g/ha (arrowleaf sida; [3]): 85%
- pest or weed control at 8 g/ha (arrowleaf sida; Sida rhombifolia, post-emergence, postemergence, 8 g ai/ha, scale 0 to 100, 0 no effect, 100 complete control, read-out: Plant response rating, Arrowleaf Sida): 55%
- pest or weed control at 16 g/ha (arrowleaf sida; [4]): 75%
- pest or weed control at 31 g/ha (Brazilian crabgrass; [5]): 25%
- pest or weed control at 62 g/ha (Brazilian crabgrass; [6]): 35%
- pest or weed control at 125 g/ha (Brazilian crabgrass; [7]): 50%
- pest or weed control at 8 g/ha (Brazilian crabgrass; Digitaria horizontalis, post-emergence, postemergence, 8 g ai/ha, scale 0 to 100, 0 no effect, 100 complete control, read-out: Plant response rating, Crabgrass, Brazil): 10%
- pest or weed control at 16 g/ha (Brazilian crabgrass; [8]): 20%
- plant response (crop injury) rating, soybean, 0-100 scale at 31 g/ha (soybean; [9]): 75%
- plant response (crop injury) rating, soybean, 0-100 scale at 62 g/ha (soybean; [10]): 95%
- plant response (crop injury) rating, soybean, 0-100 scale at 125 g/ha (soybean; [11]): 95%
- plant response (crop injury) rating, soybean, 0-100 scale at 8 g/ha (soybean; Glycine max, post-emergence, postemergence, 8 g ai/ha, scale 0 to 100, 0 no effect, 100 complete control): 20%
- plant response (crop injury) rating, soybean, 0-100 scale at 16 g/ha (soybean; [12]): 35%
- pest or weed control at 31 g/ha (barnyardgrass; [13]): 20%
- pest or weed control at 62 g/ha (barnyardgrass; [14]): 10%
- pest or weed control at 125 g/ha (barnyardgrass; [15]): 60%
- pest or weed control at 8 g/ha (barnyardgrass; Echinochloa crus-galli, post-emergence, postemergence, 8 g ai/ha, scale 0 to 100, 0 no effect, 100 complete control, read-out: Plant response rating, Barnyardgrass): 5%
- pest or weed control at 16 g/ha (barnyardgrass; [16]): 10%
- corn plant response (injury) rating, 0-100 at 31 g/ha (corn; [17]): 10%
- corn plant response (injury) rating, 0-100 at 62 g/ha (corn; [18]): 10%
- corn plant response (injury) rating, 0-100 at 125 g/ha (corn; [19]): 15%
- corn plant response (injury) rating, 0-100 at 8 g/ha (corn; Zea mays, post-emergence, postemergence, 8 g ai/ha, scale 0 to 100, 0 no effect, 100 complete control): 10%
- corn plant response (injury) rating, 0-100 at 16 g/ha (corn; [20]): 15%
- pest or weed control at 31 g/ha (sandbur; [21]): 10%
- pest or weed control at 62 g/ha (sandbur; [22]): 15%
- pest or weed control at 125 g/ha (sandbur; [23]): 0%
- pest or weed control at 8 g/ha (sandbur; Cenchrus echinatus, post-emergence, postemergence, 8 g ai/ha, scale 0 to 100, 0 no effect, 100 complete control, read-out: Plant response rating, Sandbur): 0%
- pest or weed control at 16 g/ha (sandbur; [24]): 0%

SMILES: N#Cc1cccc(Oc2ncc(F)cn2)c1-n1cc(C(F)(F)F)cn1 [Compound 79, 3-[(5-fluoro-2-pyrimidinyl)oxy]-2-[4-(trifluoromethyl)-1H-pyrazol-1-yl]benzonitrile]
- pest or weed control at 31 g/ha (arrowleaf sida; [1]): 75%
- pest or weed control at 62 g/ha (arrowleaf sida; [2]): 85%
- pest or weed control at 125 g/ha (arrowleaf sida; [3]): 98%
- pest or weed control at 16 g/ha (arrowleaf sida; [4]): 65%
- pest or weed control at 31 g/ha (Brazilian crabgrass; [5]): 10%
- pest or weed control at 62 g/ha (Brazilian crabgrass; [6]): 20%
- pest or weed control at 125 g/ha (Brazilian crabgrass; [7]): 30%
- pest or weed control at 16 g/ha (Brazilian crabgrass; [8]): 0%
- plant response (crop injury) rating, soybean, 0-100 scale at 31 g/ha (soybean; [9]): 70%
- plant response (crop injury) rating, soybean, 0-100 scale at 62 g/ha (soybean; [10]): 95%
- plant response (crop injury) rating, soybean, 0-100 scale at 125 g/ha (soybean; [11]): 95%
- plant response (crop injury) rating, soybean, 0-100 scale at 16 g/ha (soybean; [12]): 60%
- pest or weed control at 31 g/ha (barnyardgrass; [13]): 0%
- pest or weed control at 62 g/ha (barnyardgrass; [14]): 10%
- pest or weed control at 125 g/ha (barnyardgrass; [15]): 20%
- pest or weed control at 16 g/ha (barnyardgrass; [16]): 0%
- corn plant response (injury) rating, 0-100 at 31 g/ha (corn; [17]): 0%
- corn plant response (injury) rating, 0-100 at 62 g/ha (corn; [18]): 10%
- corn plant response (injury) rating, 0-100 at 125 g/ha (corn; [19]): 15%
- corn plant response (injury) rating, 0-100 at 16 g/ha (corn; [20]): 0%
- pest or weed control at 31 g/ha (sandbur; [21]): 0%
- pest or weed control at 62 g/ha (sandbur; [22]): 0%
- pest or weed control at 125 g/ha (sandbur; [23]): 10%
- pest or weed control at 16 g/ha (sandbur; [24]): 0%

SMILES: Clc1cnc(Oc2ccccc2-n2cc(Br)nn2)nc1 [Compound 223]
- Plant response rating, Arrowleaf Sida (arrowleaf sida; [25]): 70
- Plant response rating, Arrowleaf Sida (arrowleaf sida; [26]): 80
- Plant response rating, Arrowleaf Sida (arrowleaf sida; [27]): 90
- Plant response rating, Arrowleaf Sida (arrowleaf sida; [28]): 50
- Plant response rating, Arrowleaf Sida (arrowleaf sida; [29]): 60
- Plant response rating, Crabgrass, Brazil (Brazilian crabgrass; [25]): 10
- Plant response rating, Crabgrass, Brazil (Brazilian crabgrass; [26]): 10
- Plant response rating, Crabgrass, Brazil (Brazilian crabgrass; [27]): 20
- Plant response rating, Crabgrass, Brazil (Brazilian crabgrass; [28]): 0
- Plant response rating, Crabgrass, Brazil (Brazilian crabgrass; [29]): 0
- Plant response rating, Soybean (soybean; [25]): 95
- Plant response rating, Soybean (soybean; [26]): 98
- Plant response rating, Soybean (soybean; [27]): 98
- Plant response rating, Soybean (soybean; [28]): 30
- Plant response rating, Soybean (soybean; [29]): 60
- Plant response rating, Barnyardgrass (barnyardgrass; [25]): 0
- Plant response rating, Barnyardgrass (barnyardgrass; [26]): 0
- Plant response rating, Barnyardgrass (barnyardgrass; [27]): 0
- Plant response rating, Barnyardgrass (barnyardgrass; [28]): 0
- Plant response rating, Barnyardgrass (barnyardgrass; [29]): 0
- Plant response rating, Corn (corn; [25]): 0
- Plant response rating, Corn (corn; [26]): 0
- Plant response rating, Corn (corn; [27]): 5
- Plant response rating, Corn (corn; [28]): 0
- Plant response rating, Corn (corn; [29]): 0
- Plant response rating, Sandbur (sandbur; [25]): 0
- Plant response rating, Sandbur (sandbur; [26]): 0
- Plant response rating, Sandbur (sandbur; [27]): 0
- Plant response rating, Sandbur (sandbur; [28]): 0
- Plant response rating, Sandbur (sandbur; [29]): 0

— patent publication US9695155B2, “Herbicidal substituted pyrimidinyloxy benzene compounds” (E. I. DU PONT DE NEMOURS AND COMPANY, priority 2013, dated 2017)
